“Also recorded” adds a separate entry of the source.
Experiments:
[1] = system: hypovolemic shock; assay: hypovolemic shock, trauma-hemorrhage and resuscitation, non-heparinized rat; type: in vivo, Sprague-Dawley rats
Description: This experiment relates to metalloprotease inhibitors in treating hypovolemic shock when administered systemically (via i.v. injection, infusion or other appropriate route) during resuscitation following hemorrhage-induced shock in a non-heparinized animal.
Following hemorrhage, Ringer's lactate (3X maximum bleedout volume) was given over 45 minutes followed by Ringer's lactate (2X maximum bleedout volume) over 60 minutes. […] Sham-operated animals underwent blood vessel cannulation and midline incision, but hemorrhage and resuscitation was not induced. […] Saline-treated underwent trauma-hemorrhage and fluid resuscitation plus vehicle (an equal volume of normal saline) treatment.

[2] = system: common carotid artery; assay: anti-restenotic assay, balloon catheter injury of common carotid artery; type: in vivo, Male Sprague-Dawley rats
Description: Male Sprague-Dawley rats (3-3.5 months old) were subject to balloon catheter injury of the common carotid artery (Clowes et al. Lab. Invest. (1983) 49:208-215). […] Rats were sacrificed at 4 days after injury. They were injected with 25 mg/kg BrdU subcutaneously at 17, 9 and 1 hours before sacrifice to label replicating vascular smooth muscle cells. A catheter was inserted into the aorta, and the carotids were fixed by perfusion with 4% paraformaldehyde at physiologic pressure. After carefully dissecting out the common carotid, the vessels were embedded in paraffin, cross-sectioned and stained with anti-BrdU antibody and hematoxylin, and an index of medical smooth muscle cell replication was obtained by expressing the % labelled SMCs ([…] et al., J. Clin. Invest. (1992) 90:2044-2049). After fixation, the common carotids were pinned out with the intimal surface facing upwards, and cells present on the intimal surface were stained with an antibody to histone proteins. […] The surface cells were counted and the number of cells per unit area was determined. […] The animals were injected with BrdU before sacrifice to label replicating cells in the media and intima. By 10 days after injury, the normal vessel forms a thickened neointima; smooth muscle migration in to the intima and subsequent proliferation contribute to this thickening. Cross-sections of the vessel were cut and stained with anti-BrdU and hematoxylin. Intimal cross-sectional areas were measured using a computer digitizing system. […] All data are presented as mean+SEM, and the data were analyzed by student's test.

[3] = system: corneal vessels; assay: inhibition of angiogenesis, rat cornea pellet implant (Walker 256 extract); type: in vivo; details: 10 mg/mL in 55% DMSO, infused into vena cava 0.8 mL/24 hr, six days
Description: A crude extract (30 mg/mL protein) of Walker 256 carcinoma, a rat malignant tumor, was incorporated into Hydron, a slow release polymer, in 1.5 mm diameter pellets. Pellets were implanted in the stroma of the corneas of anesthetized albino rats. […] Controls received only the DMSO solution. After six days, the animals were re-anesthetized and perfused intra-arterially with India ink in order to visualize the corneal vessels. The eyes were then enucleated and fixed in 5% formalin. Control eyes which received only the DMSO solution show massive vessel growth toward the pellet from the limbus.

[4] = system: B16-F10 murine melanoma; assay: experimental metastasis assay in C57 mice; type: in vivo, Female C57 BL/6 mice; details: days 35-37; 150 mg/kg/d ip; p<0.05
Description: Female C57 BL/6 mice, 4-6 weeks old (15-20 grams), from Simonsen Laboratories (Gilroy, Calif.) were used for this assay.
The B16-F10 murine melanoma was obtained from the American Type Tissue Culture Collection, and routinely propagated in DMEM (Dulbecco's modified eagles medium)+10% fetal calf serum in plastic tissue culture flasks in a humidified 5% CO2 incubator at 37° C. B16-F10 tumor cells were harvested with trypsin-EDTA (ethylenediamine-tetraacetic acid), washed with PBS (phosphate buffered saline, 2x), resuspended at a concentration of 5×10^5 cells/ml, and held on ice prior to injection. Animals were challenged with 5×10^4 cells in a volume of 0.1 ml intravenously (10 animals/treatment group). Animals were randomly distributed prior to assignment to treatment groups.
Survival times were recorded for animals in the various treatment groups, and results were evaluated using Chi-Squared statistical analysis.

CNC(=O)[C@H](Cc1c[nH]c2ccccc12)NC(=O)[C@@H](CC(=O)NO)CC(C)C [Compound 5A, N-[D,L-2-isobutyl-3-(N'-hydroxycarbonylamido)-propanoyl]-tryptophan methylamide]
hepatocellular function (Vmax and Km) ([1]; 2 and 4 hours): improved hepatic function relative to saline group; also recorded: restores or significantly improves
Vmax of indocyanine green clearance versus saline group ([1]; 2 h): significantly higher
maximal clearance rate (Vmax) of indocyanine green ([1]; 2 h after resuscitation, of sham level): about 85%
microvascular blood flow versus saline group ([1]; 2 h and 4 h, liver, kidney, spleen, small intestine): elevated relative to the saline group; also recorded: restores or significantly improves
microvascular blood flow ([1]; 2 h and 4 h, of sham, liver, kidney, spleen, small intestine): 80-100%
Vmax of indocyanine green clearance versus saline treated animals ([1]; 4 h): two-fold that of saline treated animals
total peripheral resistance ([1]; following resuscitation, versus saline or sham): lower following resuscitation in 5A group versus saline or sham treatment; also recorded: decreases total peripheral resistance
cardiac output ([1]; of sham group): about 80%
stroke volume ([1]; of sham group): about 85%
mean arterial pressure ([1]; of the sham group): 60-70%
cardiac output versus saline group ([1]; rat, in vivo): significantly elevated; also recorded: restores or significantly improves
mean arterial pressure versus saline ([1]; rat, in vivo): not significantly different; also recorded: no significant effects
stroke volume versus saline group ([1]; rat, in vivo): elevated relative to saline group
systemic hematocrit versus saline treated group ([1]; rat, in vivo): no significant effects
heart rate ([1]; versus other groups): about the same; also recorded: no significant effects
number of cells per unit area (intimal surface) versus CMC controls ([2]; 4 day, 100 mg/kg i.p. daily): significant decrease
cell migration into the intima ([2]; 4 days after balloon injury): very large decrease
intimal cell replication rate versus controls ([2]; 10 day): significantly higher
lesion thickness ([2]; 10 day): dramatically reduced
intimal cross-sectional area versus CMC controls ([2]; 10 day, daily administration): significant decrease
corneal vessel growth versus controls [3]: vessels much shorter and/or much finer than in the controls, barely filling with ink
survival of mice versus vehicle control [4]: significant increase in the survival

Source: patent US5773438A, “Synthetic matrix metalloprotease inhibitors and use thereof” (Glycomed Incorporated, priority 1994, dated 1998)
